Laboratory results from US7138361B2, “Herbicidal heterocycles” (E. I. du Pont de Nemours and Company, priority 2000, dated 2006).

Key:
Type in all cases: in vivo
[1] = system: Nightshade; test: Test C preemergence; conditions: Rate 500 g/ha, visual evaluation after 12 to 14 days
[2] = system: rice (Oryza saliva); test: Test C flooded paddy test; conditions: for Plant response rating, Rice: scale 0 to 100 (0 no effect, 100 complete control)
Outline: (§1)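 Greenhouse-maintained for 12 to 14 days after treatment, the paddy plants (2-leaf stage at application) were scored visually against controls. A score of 0 denotes no effect and a score of 100 denotes complete control.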

[3] = system: duck salad (Heteranthera limosa); test: Test C flooded paddy test; conditions: for Plant response rating, Ducksalad: scale 0 to 100 (0 no effect, 100 complete control)
Outline: as §1

[4] = system: smallflower flatsedge (Cyperus difformis); test: Test C flooded paddy test; conditions: for Plant response rating, Flatsedge: scale 0 to 100 (0 no effect, 100 complete control)
Outline: as §1

[5] = system: barnyardgrass (Echinochloa crus-galli); test: Test C flooded paddy test; conditions: for Plant response rating, Barnyardgrass: scale 0 to 100 (0 no effect, 100 complete control)
Outline: as §1

[6] = system: bermudagrass (Cynodon dactylon); test: Test C preemergence
Outline: (§2)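 Compounds in non-phytotoxic solvent with surfactant applied preemergence to planted seeds and postemergence to plants at 1- to 4-leaf stage (2–18 cm). Kept in greenhouse 12–14 days, then visually rated against controls on a 0 (no effect) to 100 (complete control) scale.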

[7] = system: johnsongrass (Sorghum halepense); test: Test C preemergence
Outline: as §2

[8] = system: yellow nutsedge (Cyperus esculentus); test: Test C preemergence
Outline: as §2

[9] = system: crabgrass (Digitaria sanguinalis); test: Test C preemergence
Outline: as §2

[10] = system: goosegrass (Eleusine indica); test: Test C preemergence
Outline: as §2

[11] = system: Surinam grass (Brachiaria decumbens); test: Test C preemergence
Outline: as §2

[12] = system: morningglory (Ipomoea hederacea); test: Test C preemergence
Outline: as §2

[13] = system: Sunflower; test: Test C preemergence; conditions: Rate 125 g/ha; scale 0 to 100, 0 no effect, 100 complete control
[14] = system: woolly cupgrass (Eriochloa villosa); test: Test C preemergence
Outline: as §2

[15] = system: Nightshade; test: Test C preemergence
[16] = system: corn (Zea mays); test: Test C preemergence
Outline: as §2

[17] = system: common ragweed (Ambrosia elatior); test: Test C preemergence; conditions: preemergence
Outline: as §2

[18] = system: kochia (Kochia scoparia); test: Test C preemergence
Outline: as §2

[19] = system: pigweed (Amaranthus retroflexus); test: Test C preemergence
Outline: as §2

[20] = system: cocklebur (Xanthium strumarium); test: Test C preemergence
Outline: as §2

[21] = system: velvetleaf (Abutilon theophrasti); test: Test C preemergence
Outline: as §2

[22] = system: soybean (Glycine max); test: Test C preemergence
Outline: as §2

[23] = system: giant foxtail (Setaria faberii); test: Test C preemergence
Outline: as §2

[24] = Flooded Paddy, Rate 500 g/ha, scale 0 to 100, 0 no effect, 100 complete control
[25] = flooded paddy test, Rate 125 g/ha
[26] = flooded paddy test, Rate 250 g/ha
[27] = flooded paddy test, Rate 62 g/ha, visually evaluated after 12 to 14 days, 0 = no effect, 100 = complete control
[28] = Rate 125 g/ha, scale 0 to 100, 0 no effect, 100 complete control
[29] = preemergence, Rate 62 g/ha, scale 0 to 100
[30] = preemergence, Rate 500 g/ha, visual evaluation after 12 to 14 days
[31] = preemergence, Rate 250 g/ha, scale 0 to 100, 0 no effect, 100 complete control
[32] = Rate 250 g/ha, scale 0 to 100, 0 no effect, 100 complete control

COc1cc(N2CCC(n3ccc(C(C)C)n3)C2=O)ccc1Br (centres unmarked) [Compound 140]
Plant response rating (0 to 100), Nightshade [1]: 100 | Rice plant response rating [2, 24]: 50 | Plant response rating, Rice [2, 25]: 30 | Plant response rating, Rice [2, 26]: 35 | Plant response rating (scale 0 to 100), Rice [2, 27]: 0 | Ducksalad plant response rating [3, 24]: 95 | Plant response rating, Ducksalad [3, 25]: 75 | Plant response rating, Ducksalad [3, 26]: 95 | Plant response rating (scale 0 to 100), Ducksalad [3, 27]: 20 | Flatsedge plant response rating [4, 24]: 95 | Plant response rating, Flatsedge [4, 25]: 90 | Plant response rating, Flatsedge [4, 26]: 95 | Plant response rating (scale 0 to 100), Flatsedge [4, 27]: 90 | Barnyardgrass plant response rating [5, 24]: 100 | Plant response rating, Barnyardgrass [5, 25]: 100 | Plant response rating, Barnyardgrass [5, 26]: 100 | Plant response rating (scale 0 to 100), Barnyardgrass [5, 27]: 50 | Plant response rating, Bermudagrass [6, 28]: 100 | Plant response rating, Bermudagrass [6, 29]: 100 | Plant response rating (0 to 100 where 0 is no effect and 100 is complete control), Bermudagrass [6, 30]: 100 | Plant response rating, Bermudagrass [6, 31]: 100 | Plant response rating, Johnsongrass [7, 28]: 20 | Plant response rating, Johnsongrass [7, 29]: 0 | Plant response rating (0 to 100), Johnsongrass [7, 30]: 100 | Plant response rating, Johnsongrass [7, 31]: 100 | Plant response rating, Nutsedge [8, 28]: 40 | Plant response rating, Nutsedge [8, 29]: 20 | Plant response rating (0 to 100), Nutsedge [8, 30]: 70 | Plant response rating, Nutsedge [8, 31]: 60 | Plant response rating, Crabgrass [9, 28]: 100 | Plant response rating, Crabgrass [9, 29]: 100 | Plant response rating (0 to 100), Crabgrass [9, 30]: 100 | Plant response rating, Crabgrass [9, 31]: 100 | Plant response rating, Goosegrass [10, 28]: 100 | Plant response rating, Goosegrass [10, 29]: 100 | Plant response rating (0 to 100), Goosegrass [10, 30]: 100 | Plant response rating, Goosegrass [10, 31]: 100 | Plant response rating, Surinam grass [11, 28]: 0 | Plant response rating, Surinam grass [11, 29]: 0 | Plant response rating (0 to 100), Surinam grass [11, 30]: 100 | Plant response rating, Surinam grass [11, 31]: 90 | Plant response rating, Morningglory [12, 28]: 90 | Plant response rating, Morningglory [12, 29]: 70 | Plant response rating (0 to 100), Morningglory [12, 30]: 100 | Plant response rating, Morningglory [12, 31]: 100 | Plant response rating, Sunflower [13]: 50 | Plant response rating, Cupgrass, Woolly [14, 28]: 100 | Plant response rating, Cupgrass, Woolly [14, 29]: 100 | Plant response rating (0 to 100), Cupgrass, Woolly [14, 30]: 100 | Plant response rating, Cupgrass, Woolly [14, 31]: 100 | Plant response rating, Nightshade ([15]; Rate 62 g/ha, scale 0 to 100): 100 | Plant response rating, Nightshade [15, 28]: 100 | Plant response rating, Nightshade [15, 32]: 100 | Plant response rating, Corn [16, 28]: 20 | Plant response rating, Corn [16, 29]: 20 | Plant response rating (0 to 100), Corn [16, 30]: 30 | Plant response rating, Corn [16, 31]: 30 | Plant response rating, Ragweed, Common ([17]; Rate 62 g/ha, scale 0 to 100): 100 | Plant response rating (0 to 100), Ragweed, Common ([17]; Rate 500 g/ha, visual evaluation after 12 to 14 days): 100 | Plant response rating, Ragweed, Common [17, 32]: 100 | Plant response rating, Kochia [18, 28]: 100 | Plant response rating, Kochia [18, 29]: 100 | Plant response rating (0 to 100), Kochia [18, 30]: 100 | Plant response rating, Kochia [18, 31]: 100 | Plant response rating, Pigweed [19, 28]: 100 | Plant response rating, Pigweed [19, 29]: 100 | Plant response rating (0 to 100), Pigweed [19, 30]: 100 | Plant response rating, Pigweed [19, 31]: 100 | Plant response rating, Cocklebur [20, 28]: 30 | Plant response rating, Cocklebur [20, 29]: 30 | Plant response rating, Cocklebur [20, 31]: 90 | Plant response rating, Velvetleaf [21, 28]: 70 | Plant response rating, Velvetleaf [21, 29]: 60 | Plant response rating (0 to 100), Velvetleaf [21, 30]: 90 | Plant response rating, Velvetleaf [21, 31]: 90 | Plant response rating, Soybean [22, 28]: 80 | Plant response rating, Soybean [22, 29]: 50 | Plant response rating (0 to 100), Soybean [22, 30]: 100 | Plant response rating, Soybean [22, 31]: 100 | Plant response rating, Foxtail, Giant [23, 28]: 100 | Plant response rating, Foxtail, Giant [23, 29]: 100 | Plant response rating (0 to 100), Foxtail, Giant [23, 30]: 100 | Plant response rating, Foxtail, Giant [23, 31]: 100
